A word on the inhibition: it is the drop in the measured response relative to a control, in per cent. High values mean a response far below the control, low ones a response near the control.

Residues, ends and D or L forms follow the SMILES beside them.

We go through 4 compounds from patent US20120010158A1, “TUMOR NECROSIS FACTOR INHIBITING PEPTIDES AND USES THEREOF” (PANACEA BIOTEC LTD., priority 2008, published 2012).

The target of data set [1] is T1, TNF-alpha (Homo sapiens, UniProt P01375). Description: Inhibition of TNF-alpha mediated cytotoxicity of L-929 cells (crystal violet).
Description: (§2) The peptides of the present invention were analyzed for inhibition of TNF-alpha induced cytotoxicity employing murine fibroblast cell line, L929. Addition of TNF-alpha to L929 cells (ATCC) induces cytotoxicity, which can be estimated by staining of viable cells with vital dyes like MTT (3-(4,5-Dimethylthiazol-2-yl)-2,5-diphenyltetrazolium bromide, a tetrazole) or crystal violet followed by extraction of dyes with methanol. […] The assay was performed as follows:
(§3) L929 cells (maintained in Dulbecco's modified Eagle's medium supplemented with 10% FCS) were seeded at a density of 2×10^5 cells/ml in a microtitre plates, and incubated with actinomycin D (ACT-D) at concentration of 1 μg/ml for 2 h at 37° C. and 5% CO2. TNF-α (100 pg/ml) preincubated with 75 μM of peptide solution at 37° C. was added to L929 cells and incubated overnight at 37° C., 5% CO2. […]
(§4) The live cells of test and positive control plates were then stained with 100 μl/well of 0.05% crystal violet and incubated at room temperature for 15 min., washed with PBS and kept for overnight drying at room temperature. Crystal violet was extracted from the cells by 100 μl per well of methanol and absorbance of extracted crystal violet dye was estimated at 595 nm. Percent inhibition in cytotoxicity was calculated by the following formula: […]
Data set [2] has as its system adjuvant induced arthritis. Description: Rat model of adjuvant induced arthritis. It is filed as in vivo, Wistar rats. The conditions noted are these: 2.5 mg/kg once every day for 6 days, then 3 doses every alternate day; for clinical score: p<0.05, score 0-4, FIG. 9b; for paw thickness: vs PBS treated arthritic rats, FIG. 9a. The procedure: In vivo efficacy of peptide with sequence ID-6 was evaluated in a rat model of “adjuvant” induced arthritis. This model is widely used for developing and testing anti-inflammatory drugs. Adjuvant arthritis (AA) in rats mimics features of inflammatory arthritis in humans (Pearson et al, 1956, Proc. Soc. Exp. Biol. Med. 112:95-10). AA was induced in male Wistar rats by intradermal immunization with 150 μg of complete freunds adjuvant followed by a booster immunization at day 7 with incomplete freunds adjuvant. Arthritis was evaluated in animals by clinical scoring and measurement of paw and joint thickness using digital vernier calipers. The clinical score was assigned according to following criteria: 0=no erythema or swelling 1=slight erythema or swelling of one of toes or fingers 2=erythema and swelling of more than one toe or finger 3=erythema and swelling of the ankle or wrist 4=complete erythema and swelling of toes or fingers and ankle or wrist and inability to bend the ankle or wrist. Arthritic rats were administered with peptide Sequence ID-6 at a dose of 2.5 mg/kg, once every day for 6 days in the first week followed by 3 doses every alternate day in the second week. Another group of arthritic animals received Etanercept (Et) in similar manner.

The target of data set [3] is T2, TNF-R1 (Homo sapiens, UniProt P19438).
T2 construct: endogenous in cells; host or cells: U937
T2 sequence (P19438 30-455): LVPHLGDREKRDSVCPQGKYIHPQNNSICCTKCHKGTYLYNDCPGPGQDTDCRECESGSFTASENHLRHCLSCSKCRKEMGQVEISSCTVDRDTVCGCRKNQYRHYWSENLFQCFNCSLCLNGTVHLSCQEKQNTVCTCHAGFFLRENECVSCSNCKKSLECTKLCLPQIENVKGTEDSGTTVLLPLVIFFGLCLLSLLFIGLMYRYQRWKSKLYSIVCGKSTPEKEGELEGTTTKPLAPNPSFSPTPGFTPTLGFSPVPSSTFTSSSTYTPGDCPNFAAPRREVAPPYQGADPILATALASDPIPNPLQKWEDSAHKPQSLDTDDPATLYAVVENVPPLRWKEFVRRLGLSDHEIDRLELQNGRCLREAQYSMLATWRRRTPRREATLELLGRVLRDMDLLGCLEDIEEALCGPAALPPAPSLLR
Description: Binding of peptide to TNF-R1 on U937 cells by flow cytometry. The conditions noted are these: untreated 83%. The source says: (§1) Flow cytometry assay technique was used to investigate binding of peptides to TNF-α or TNF-R1 employing U937 cells (a TNF-receptor expressing human leukemia cell line). Binding of peptide to TNF-α prevents TNF-α from interacting with TNF-R1 which can be analyzed by flow cytometry. Similarly, direct binding of peptide with TNF-R1 reduces percent TNF-R1 positive cells which can be analyzed by flow cytometry.
U937 cells were used to quantify the binding of peptides to TNF-R 1. TNF-alpha upon addition to U937 cells binds to its cognate receptor TNF-R1 on U937 cells leading to a reduction in percent cells positive for TNF-R1. TNF-alpha inhibiting peptides according to present invention bind to TNF-R1 and reduce the TNF-R1 positive cells after incubation of U937 cells with said peptides.
Peptide of Sequence ID-6 was analyzed for binding of peptide to TNF-R1 on U937 cells using flow cytometry. […] After two washes in binding buffer, the cells were analyzed using FACS Calibur flow cytometer (Becton Dickinson). The gates were set on the live cell population, and the degree of binding to TNF-R1 was calculated on the basis of percent cells positive for TNF-RI expression.
For orientation: A flow cytometer gives signals particle by particle.

The target in data set [4] is T1, TNF-alpha. Description: Inhibition of TNF-α binding to its receptor TNF-R1 on U937 cells (flow cytometry). Particulars: U937 cells with complex of peptide and TNF-alpha (5 ng); untreated 78±1%, TNF-alpha alone 32±10%. Set-up: host or cells: U937 cells carry the partner receptor endogenously.
Source text: as §1
TNF-alpha binds to its cognate receptor TNF-R1 on U937 cells (ATCC) leading to a reduction in percent cells positive for TNF-R1. TNF-alpha binding peptides bind to TNF-alpha and prevent the interaction of TNF-alpha with TNF-R1. The percent cells positive for TNF-R1 can be quantified by staining with fluorochrome conjugated anti-TNF-R1 antibody.
Peptides of Sequence ID-2 and Sequence ID-6 were analyzed for inhibition of TNF-alpha binding to its receptor TNF-R1 on U937 cells. Inhibition of TNF-alpha binding to TNF-RI on U937 cells by peptides with sequence ID-2 or sequence ID-6 was estimated, using fluorescent activated cell sorter (FACS, FACSCALIBUR, Becton Dickinson, USA). […]

Data set [5] relates to collagen induced arthritis. Description: Murine model of collagen induced arthritis. Format: in vivo, C57BL/6 mice. Particulars: for anticollagen IgG1/IgG2a ratio after therapy: vs PBS treated arthritic animals, FIG. 8b. The procedure: Male C57BL/6 mice obtained from animal house at Lalru, Panacea Biotec were used to develop a murine model of rheumatoid arthritis. Mice were intradermally immunized with 150 μg of chicken type-II collagen (Sigma) emulsified in complete Freunds adjuvant (CFA) (Sigma). On day 17 after primary immunization, a booster immunization with 100 μg of chick type II collagen in incomplete Freunds adjuvant was administered to animals (Ethan M Shevach, Curr. Prot. Immunol. 2002: 15.0.1-15.0.6; Inglis J et al, 2008 Nature Protocols, 4:612-618). Increase in paw thickness as compared to controls (healthy, male C57BL/6 mice) and presence of anti-collagen IgG antibodies were the parameters to assess development of arthritis. Paw thickness in animals was measured using digital Vernier Calipers and anticollagen antibodies were measured in the mouse serum on day 35 after immunization.
Chicken type-II collagen (sigma) was coated onto ELISA plates at 1 μg/ml in PBS and incubated overnight at 4° C. After three washes in PBS-0.05% Tween 20 (PBS-T), serum from collagen, vehicle (CFA) and PBS (control) injected mice was added to separate wells at dilution of 1:100. Plate was incubated at room temperature for 2 h. After 5 washes in PBS-T rabbit antimouse IgG HRP (Bethyl Laboratories) was added to wells at 1:10000 dilutions and incubated at room temperature for 45 min. After washing the plate in PBS-T, OPD (ortho-phenyl diamine) as substrate was added and colour development observed. Colour development was stopped by 2N HCl. Absorbance was recorded at 490 nm (Ethan M Shevach, Cum Prot. Immunol. 2002: 15.0.1-15.0.6).
Determination of optimum dose and schedule of peptide with Sequence ID-6 was performed in a murine model of collagen induced arthritis (as prepared above). Arthritic mice were randomized according to paw thickness and divided into separate groups of 4-5 animals for intravenous administration of peptide sequence ID-6.
Efficacy of peptide with sequence ID-6 and sequence ID-2 was compared with Etanercept (Marketed and approved TNF-alpha inhibiting agent with the brand name “Enbrel”) using a murine model of collagen induced arthritis (As prepared and described above). Peptides of Sequence ID-6, Sequence ID-2 and Etanercept were intravenously administered to the arthritic mice at a dose of 5 mg/kg three times in first week followed by once every week for three weeks.
Development of disease in collagen induced arthritis is accompanied by an increase in Th1 or proinflammatory response. IgG1/IgG2a levels were measured to determine that whether treatment with the peptides of the present invention and Etanercept improved clinical disease in murine model by decreasing Th1 response. Lower IgG1/IgG2a ratio would indicate down regulation of Th1 or proinflammatory response.

Data set [6] has as its target T1, TNF-alpha.
Description: as §2, §3, §4
[7] abbreviates: 5 mg/kg i.v. three times in first week then once every week for three weeks, pre vs post treatment, Example 5(d), FIG. 8a.
The mark [8] stands for this setting: 5 mg/kg i.v. three times in first week then once every week for three weeks.

T1 sequence (P01375 77-233 limits assumed, species assumed): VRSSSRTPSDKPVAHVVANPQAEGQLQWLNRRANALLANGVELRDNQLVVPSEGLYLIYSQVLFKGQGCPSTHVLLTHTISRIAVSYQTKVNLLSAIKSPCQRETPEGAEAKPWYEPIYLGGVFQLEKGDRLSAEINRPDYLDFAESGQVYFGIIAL

Turning to `CC(C)C[C@@H]1NC(=O)[C@H](Cc2ccc(O)cc2)NC(=O)[C@H](CCC(N)=O)NC(=O)[C@H](CO)NC(=O)[C@H](Cc2c[nH]c3ccccc23)NC(=O)[C@@H](NC(=O)[C@@H](N)Cc2ccc(O)cc2)CSSC[C@@H](C(=O)N[C@@H](Cc2ccc(O)cc2)C(=O)O)NC1=O` [Cyclic WSQYL, cy Trp-Ser-Gln-Tyr-Leu CY], in data set [1], the inhibition at 75 µM is 60 ± 10%.
Take `NC(=O)C[C@H](NC(=O)[C@@H](N)CO)C(=O)N[C@@H](Cc1ccc(O)cc1)C(=O)O` [Sequence ID-6, Ser--Asn--Tyr] (H-Ser-Asn-Tyr-OH; N-terminus assumed): in data set [2], the clinical score result was “significant lowering of clinical score”. For the same compound, the paw thickness entry in data set [2] is reported as “Lowering of paw thickness”; in data set [5] (setting [7]), “significant lowering of paw thickness”; in data set [5] (5 mg/kg i.v. thrice weekly followed by once every week for 3 wks, Example 5(c), FIG. 7), “significant reduction of paw thickness”; in data set [5] (7.5 mg/kg i.v. once every week for 4 wks, Example 5(c), FIG. 7), “insignificant lowering of paw thickness”. Besides, the figures for the “percent cells positive for TNF-R1” value in data set [3] (U937 cells incubated with peptide 250 μM) and in data set [4] were 32% and 57±8%, respectively. For the same compound, the “anticollagen IgG1/IgG2a ratio after therapy” value in data set [5] (setting [8]) is given as “lower ratio of IgG1/IgG2a”. Moreover, the “ability to inhibit TNF-alpha induced cytotoxicity compared with Etanercept” value in data set [6] is listed as “comparable ability”.
Take Etanercept [reference compound]: in data set [2], the clinical score entry was “significant lowering of clinical score” and the paw thickness entry is listed as “Lowering of paw thickness”. The paw thickness entry in data set [5] (setting [7]) was “significant lowering of paw thickness”. Moreover, the “anticollagen IgG1/IgG2a ratio after therapy” value in data set [5] (setting [8]) is listed as “lower ratio of IgG1/IgG2a”.
Turning to TNF-alpha, in data set [3] (U937 cells incubated with recombinant TNF-alpha 10 ng), the “percent cells positive for TNF-R1” value was 31.6%.
